Here are results for 1 molecule from patent US20040029134A1, “P53-associated Parkin-like cytoplasmic protein, and related compositions and methods” (priority 2002, published 2004).

This test deals with Parc-overexpressing (Flag-Parc/U2OS) cells. In words: Subcellular p53 localization by immunofluorescent staining (anti-p53 1801). The class given is cell-based, human. The note with it: etoposide 1 μM for 6 hours. The source says:
FIGS. 10A and 10B Parc over-expression abrogates stress-induced nuclear localization of endogenous p53 in U2OS cells. […] The etoposide-treated cells were immunostained with anti-p53 antibody (1801) (visualized by fluorescence) and counterstained with DAPI to visualize the nuclei. (B) Quantification of subcellular p53 localization in parental U2OS and in Parc-overexpressing (Flag-Parc/U2OS) cell lines after the cells were immunostained with the anti-p53 antibody (1801).
For the p53 cytoplasmic sequestration assay, cells were transfected with 30 ng/well CMV-p53 and 150 ng/well CMV-Parc. 24 hours post-transfection cells were fixed with 4% paraformaldehyde for 20 min. on ice, rehydrated for 5 min in serum-free DMEM and permeabilized with 0.2% Triton X100 (Fisher) for 10 min on ice. Cells were incubated in 1% bovine serum albumin (BSA) (Sigma)/Phosphate Buffered Salt solution (PBS) (Cellgro) for 30 min. Primary p53-specific monoclonal (for endogenous p53 immunostaining) (DO-1, 1801, Santa Cruz) or polyclonal (for transfected p53 immunostaining) (FL-393, Santa Cruz) antibodies or anti-Flag monoclonal antibody (for transfected Flag-Parc and Flag-Myc immunostaining) (Santa Cruz) were added in 1% BSA/PBS for 45 min at room temperature. […]

Molecules are shown by their SMILES.

Regarding `COc1cc([C@@H]2c3cc4c(cc3[C@@H](O[C@@H]3O[C@@H]5CO[C@@H](C)O[C@H]5[C@H](O)[C@H]3O)[C@H]3COC(=O)[C@H]23)OCO4)cc(OC)c1O` [etoposide], the “cells with nuclear p53 staining” value is “less than 30%”.
